Reference: patent US11351178B2, “Selective HDAC6 inhibitors” (ITALFARMACO S.P.A., priority 2017, dated 2022)

Molecular target: T1, recombinant human HDAC6 (Homo sapiens, UniProt Q9UBN7)
T1 sequence (Q9UBN7 1-1215): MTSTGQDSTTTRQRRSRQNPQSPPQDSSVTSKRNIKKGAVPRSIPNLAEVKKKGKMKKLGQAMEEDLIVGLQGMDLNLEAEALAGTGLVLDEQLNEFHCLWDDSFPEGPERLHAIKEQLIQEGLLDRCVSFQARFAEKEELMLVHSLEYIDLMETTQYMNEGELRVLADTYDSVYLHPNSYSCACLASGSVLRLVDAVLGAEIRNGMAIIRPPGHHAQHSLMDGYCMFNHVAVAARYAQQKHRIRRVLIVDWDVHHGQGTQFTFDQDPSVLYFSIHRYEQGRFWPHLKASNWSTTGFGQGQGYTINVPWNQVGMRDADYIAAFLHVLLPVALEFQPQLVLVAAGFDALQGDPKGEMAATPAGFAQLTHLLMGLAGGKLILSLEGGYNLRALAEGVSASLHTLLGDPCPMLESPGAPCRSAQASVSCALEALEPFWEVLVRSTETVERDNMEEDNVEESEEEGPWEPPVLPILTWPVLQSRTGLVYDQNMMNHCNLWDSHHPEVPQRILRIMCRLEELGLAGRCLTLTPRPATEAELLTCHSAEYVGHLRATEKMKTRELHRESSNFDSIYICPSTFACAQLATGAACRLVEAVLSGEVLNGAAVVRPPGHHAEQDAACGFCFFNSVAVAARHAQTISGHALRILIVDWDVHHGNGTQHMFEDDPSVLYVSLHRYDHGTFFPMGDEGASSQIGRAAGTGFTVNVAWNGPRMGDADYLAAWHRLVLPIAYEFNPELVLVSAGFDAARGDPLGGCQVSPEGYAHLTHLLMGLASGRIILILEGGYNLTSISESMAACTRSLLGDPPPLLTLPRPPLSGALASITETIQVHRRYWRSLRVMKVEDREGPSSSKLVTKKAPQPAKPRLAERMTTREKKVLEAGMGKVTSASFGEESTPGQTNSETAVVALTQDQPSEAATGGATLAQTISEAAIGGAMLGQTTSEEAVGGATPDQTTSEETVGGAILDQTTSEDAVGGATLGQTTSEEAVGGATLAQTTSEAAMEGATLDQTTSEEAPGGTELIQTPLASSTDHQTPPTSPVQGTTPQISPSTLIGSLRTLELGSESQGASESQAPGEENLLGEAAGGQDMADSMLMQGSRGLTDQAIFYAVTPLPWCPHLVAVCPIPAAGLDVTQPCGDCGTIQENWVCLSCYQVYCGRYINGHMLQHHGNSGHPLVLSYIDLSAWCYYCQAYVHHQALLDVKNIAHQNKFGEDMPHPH
Assay: Enzymatic screening on recombinant human HDAC6
Type: biochemical
Conditions: Table 2; read-out: HDAC6 IC50
Description: Enzymatic activity on recombinant human HDAC6 and HDAC3 was evaluated (Table 2) for each synthesized compound.
After a period of incubation at 30° C. (incubation times vary for different isoforms and are shown in table 1) 25 μL of solution containing the substrate were added. As substrate, FLUOR DE LYS® deacetylase substrate (Enzo Life Sciences, cat #BML-K1104, FdL), FLUOR DE LYS®-Green substrate (Enzo Life Sciences, cat #BML-K1572 FdL_G) and trifluoroacetyl-L-lysine (Tfal)-2× concentrated solution in 25 mM Tris-HCl, pH 8, 130 mM NaCl 0.05% Tween-20 10% glycerol) were used. Following a reaction period at 30° C.

| Compound | IC50 |
| --- | --- |
| O=C(NO)c1ccc(Sc2nc(C3CC3)n(-c3ccccc3)n2)cc1 [comp. 72, 4-[(5-cyclopropyl-1-phenyl-1,2,4-triazol-3-yl)sulfanyl]benzenecarbohydroxamic acid] | 162 nM |
| O=C(NO)c1cc(F)c(Sc2nnc(-c3cccs3)[nH]2)c(F)c1 [comp. 97, 3,5-difluoro-4-[[5-(2-thienyl)-4H-1,2,4-triazol-3-yl]sulfanyl]benzenecarbohydroxamic acid] | 51 nM |
| O=C(NO)c1ccc(Cn2nnnc2-c2cccc(S(F)(F)(F)(F)F)c2)cc1 [comp. 107, 4-[[5-[3-(pentafluoro-lambda6-sulfanyl)phenyl]tetrazol-1-yl]methyl]benzenecarbohydroxamic acid] | 162 nM |
| O=C(NO)c1cc(F)c(Cn2nnc(-c3cccc(S(F)(F)(F)(F)F)c3)n2)c(F)c1 [comp. 108, 3,5-difluoro-4-[[5-[3-(pentafluoro-lambda6-sulfanyl)phenyl]tetrazol-2-yl]methyl]benzenecarbohydroxamic acid] | 108 nM |
| O=C(NO)c1ccc(Cn2nnnc2-c2ccc(S(F)(F)(F)(F)F)cc2)cc1 [comp. 111, 4-[[5-[4-(pentafluoro-lambda6-sulfanyl)phenyl]tetrazol-1-yl]methyl]benzenecarbohydroxamic acid] | 271 nM |
| O=C(NO)c1cc(F)c(Cn2nnc(-c3ccc(S(F)(F)(F)(F)F)cc3)n2)c(F)c1 [comp. 112, 3,5-difluoro-4-[[5-[4-(pentafluoro-lambda6-sulfanyl)phenyl]tetrazol-2-yl]methyl]benzenecarbohydroxamic acid] | 123 nM |
| O=C(NO)c1cc(F)c(Cn2nnnc2-c2ccc(S(F)(F)(F)(F)F)cc2)c(F)c1 [comp. 113, 3,5-difluoro-4-[[5-[4-(pentafluoro-lambda6-sulfanyl)phenyl]tetrazol-1-yl]methyl]benzenecarbohydroxamic acid] | 158 nM |
| Cn1c(Sc2c(F)cc(C(=O)NO)cc2F)nnc1-c1cccc(N2CC[N+](C)([O-])CC2)c1 [comp. 114, 3,5-difluoro-4-[[4-methyl-5-[3-(4-methyl-4-oxido-piperazin-4-ium-1-yl)phenyl]-1,2,4-triazol-3-yl]sulfanyl]benzenecarbohydroxamic acid] | 256 nM |
| O=C(NO)c1ccc(Cn2nnnc2-c2ncccn2)cc1 [comp. 124, 4-[(5-pyrimidin-2-yltetrazol-1-yl)methyl]benzenecarbohydroxamic acid] | 72 nM |
| O=C(NO)c1ccc(Cn2nnc(-c3ccc(C(F)(F)F)cn3)n2)cc1 [comp. 126, 4-[[5-[5-(trifluoromethyl)-2-pyridyl]tetrazol-2-yl]methyl]benzenecarbohydroxamic acid] | 86 nM |
| O=C(NO)c1cc(F)c(Cn2nnc(-c3ccc(C(F)(F)F)cn3)n2)c(F)c1 [comp. 128, 3,5-difluoro-4-[[5-[5-(trifluoromethyl)-2-pyridyl]tetrazol-2-yl]methyl]benzenecarbohydroxamic acid] | 45 nM |
| O=C(NO)c1ccc(Cn2nnc(-c3ncc(C(F)(F)F)cc3N3CCOCC3)n2)cc1 [comp. 130, 4-[[5-[3-morpholino-5-(trifluoromethyl)-2-pyridyl]tetrazol-2-yl]methyl]benzenecarbohydroxamic acid] | 837 nM |
| O=C(NO)c1ccc(Cn2nnnc2-c2ncc(C(F)(F)F)cc2N2CCOCC2)cc1 [comp. 131, 4-[[5-[3-morpholino-5-(trifluoromethyl)-2-pyridyl]tetrazol-1-yl]methyl]benzenecarbohydroxamic acid] | 57 nM |
| O=C(NO)c1ccc(Cn2nnnc2Cc2ccccn2)cc1 [comp. 133, 4-[[5-(2-pyridylmethyl)tetrazol-1-yl]methyl]benzenecarbohydroxamic acid;2,2,2-trifluoroacetic acid] | 283 nM |

Molecules with a lower IC50, results first:

| IC50 | Compound |
| --- | --- |
| 11 nM | O=C(NO)c1ccc(Cc2nnc(-c3ccc(S(=O)(=O)N4CCCC4)cc3)o2)cc1 [comp. 69, 4-[[5-(4-pyrrolidin-1-ylsulfonylphenyl)-1,3,4-oxadiazol-2-yl]methyl]benzenecarbohydroxamic acid] |
| 8 nM | CN(C)c1ccc(-c2nnc(Sc3ccc(C(=O)NO)cc3)n2C)cc1 [comp. 73, 4-[[5-[4-(dimethylamino)phenyl]-4-methyl-1,2,4-triazol-3-yl]sulfanyl]benzenecarbohydroxamic acid] |
| 39 nM | O=C(NO)c1ccc(Cn2nnnc2-c2ccco2)cc1 [comp. 86, 4-[[5-(2-furyl)tetrazol-1-yl]methyl]benzenecarbohydroxamic acid] |
| 2 nM | O=C(NO)c1ccc(Cn2nnnc2-c2nccc3ccccc23)cc1 [comp. 88, 4-[[5-(1-isoquinolyl)tetrazol-1-yl]methyl]benzenecarbohydroxamic acid] |
| 20 nM | O=C(NO)c1ccc(Cn2nnc(-c3ccc4ccccc4n3)n2)cc1 [comp. 90, 4-[[5-(2-quinolyl)tetrazol-2-yl]methyl]benzenecarbohydroxamic acid] |
| 26 nM | O=C(NO)c1ccc(Cn2nnc(-c3cccc(S(F)(F)(F)(F)F)c3)n2)cc1 [comp. 106, 4-[[5-[3-(pentafluoro-lambda6-sulfanyl)phenyl]tetrazol-2-yl]methyl]benzenecarbohydroxamic acid] |
| 6 nM | Cn1c(Sc2c(F)cc(C(=O)NO)cc2F)nnc1-c1scc2c1OCCO2 [comp. 118, 4-[[5-(2,3-dihydrothieno[3,4-b][1,4]dioxin-5-yl)-4-methyl-1,2,4-triazol-3-yl]sulfanyl]-3,5-difluoro-benzenecarbohydroxamic acid] |
| 9 nM | O=C(NO)c1ccc(Cn2nnnc2-c2ccc(C(F)(F)F)cn2)cc1 [comp. 127, 4-[[5-[5-(trifluoromethyl)-2-pyridyl]tetrazol-1-yl]methyl]benzenecarbohydroxamic acid] |
| 25 nM | O=C(NO)c1ccc(Cn2nnc(Cc3ccccn3)n2)cc1 [comp. 132, 4-[[5-(2-pyridylmethyl)tetrazol-2-yl]methyl]benzenecarbohydroxamic acid;2,2,2-trifluoroacetic acid] |
| 40 nM | Cn1c(Sc2c(F)cc(C(=O)NO)cc2F)nnc1-c1cc(-c2cccs2)n(-c2ccccc2)n1 [comp. 136, 3,5-difluoro-4-[[4-methyl-5-[1-phenyl-5-(2-thienyl)pyrazol-3-yl]-1,2,4-triazol-3-yl]sulfanyl]benzenecarbohydroxamic acid] |
| 20 nM | O=C(NO)c1cc(F)c(Sc2nnc(-c3ccco3)n2Cc2ccccc2)c(F)c1 [comp. 142, 4-[[4-benzyl-5-(2-furyl)-1,2,4-triazol-3-yl]sulfanyl]-3,5-difluoro-benzenecarbohydroxamic acid] |
| 25 nM | O=C(NO)c1cc(F)c(Sc2nnc(-c3cccs3)n2Cc2ccccc2)c(F)c1 [comp. 143, 4-[[4-benzyl-5-(2-thienyl)-1,2,4-triazol-3-yl]sulfanyl]-3,5-difluoro-benzenecarbohydroxamic acid] |
| 12 nM | O=C(NO)c1cc(F)c(Sc2nnc(-c3cccs3)n2Cc2ccco2)c(F)c1 [comp. 144, 3,5-difluoro-4-[[4-(2-furylmethyl)-5-(2-thienyl)-1,2,4-triazol-3-yl]sulfanyl]benzenecarbohydroxamic acid] |
| 6 nM | Cn1c(Sc2c(F)cc(C(=O)NO)cc2F)nnc1-c1cc2ccccc2cn1 [comp. 148, 3,5-difluoro-4-[[5-(3-isoquinolyl)-4-methyl-1,2,4-triazol-3-yl]sulfanyl]benzenecarbohydroxamic acid] |
